Experimental data taken from patent US20230010299A1, “HETEROCYCLIC TRPML1 AGONISTS” (LIBRA THERAPEUTICS, INC., priority 2019, published 2023).

Legend:
[1] = system: autophagy reporter Rosella (LC3 tag) in HeK293 cell line; experiment: Autophagy assay (reporter Rosella, imaging); format: cell-based; conditions: Homo sapiens; HeK293 cells stably expressing reporter Rosella; 18 hours incubation; reference Torin-1 1 μM as max signal; read-out: Secondary Assays Autophagy qAC50
Procedure: Buffers and Reagents • Tyrode's buffer with 2 mM Ca^2+ in-house solution (130 mM NaCl, 5 mM KCl, 2 mM CaCl2), 1 mM MgCl2, 5 mM NaHCO3, 20 mM HEPES in water at pH 7.4; sterile filtered) • DMSO (Sigma) • Bis-benzimide H 33342 trihydrochloride (Hoechst 33342; Sigma-Aldrich) • Reference molecule (agonist): Torin-1, (#4247, Tocris) stock 1.2 mM in DMSO, stored at −20° C.
Reporter of Autophagy and Cell Line
Reporter Rosella: a fluorescent-based chimera constitutes by two fluorescent proteins, Green and Red variants, acting as a bimodal indicator of pH. […] The reporter is fused to sequence for autophagosome localization (LC3 tag).
The reporter Rosella have been stably expressed in HeK293 cell line and used as read-out.
Experiments have been performed in 384 MTP poly-lysine coated well format. Cells have been seeded in 384-w at a density of 6000 cells/well in 25 μl/well complete growth medium without antibiotics. Twenty-four hours later, cells have been treated with compounds and incubated for further 18 hours. Then the cells have been imaged and assayed for the response to various compounds using the reporter for autophagy expressed in the cells as readout.
The experiments were performed in a 384-well format according to the following procedure: • 24 h after seeding, cells were incubated with compounds at the desired concentration, and with the reference molecule (agonist) Torin-1 at a top concentration of 1 μM (max signal), for 18 hours at 37° C. and 5% CO2. The final percentage of DMSO was 0.3% in all the conditions. • Then the culture medium was carefully removed to avoid cells detachment and to discard red phenol into the medium and that can interfere with the measurements. • Staining of the nuclei was obtained by incubating the cells with 8 μM/well of Hoechst 3342 in standard Tyrode's buffer for 20 min at RT • Then the cells were carefully washed two times with standard Tyrode's buffer • Finally, the samples were acquired by recording three fluorescence emission channels (green, red and blue) at 20× magnification and with at least 3-4 fields of view per well in an Operetta CLS microscope (PerkinElmer). • Image analysis was performed by using Harmony software (PerkinElmer). The image analysis involved the following steps: flat-field illumination correction, nuclei segmentation, cell segmentations and identification of vesicles/granules within the cytosol compartments and representing the autophagy vesicles. Measurements of signal intensity ratio (Green to Red) and number of autophagy vesicles per cells were used to obtain information on the effects of compounds on the autophagy flux. • Data from image analysis measurements were finally loaded and analyzed for normalization and fitting procedures in Genedata Screener© software.

TRPML1 = target: T1, TRPML1 (Homo sapiens, UniProt Q9GZU1); experiment: TRPML1 automated patch-clamp (QPatch 16X); format: cell-based; conditions: HEK T-REx/GcaMP6f/TRPML1 cells, current with compound/current in vehicle, extracellular pH 4.6
T1 construct: expressed in transfected cells
Procedure: TRPML1—Automated Patch-Clamp
HEK T-REx/GcaMP6f/TRPML1 cells were cultured in DMEM High Glucose (Lonza BioWhittaker cat. BE12-604F/U1; 500 mL) supplemented with Fetal Bovine Serum TET-FREE (Euroclone cat. EC S0182L; 50 mL, Penicillin-Streptomycin (BioWhittaker, cat. DE17-602E; 5 mL of 100× Solution), G418 (Sigma, cat. G8168; 0.25 mg/ml) and Zeocyn (InvivoGen, cat. ant-zn-1; 50 μg/ml).
HEK T-REx/GcaMP6f/TRPML1 cells were seeded 48 or 72 hours before experiment, at a concentration of 8*10^6/4*10^6 cells onto a T225 flask. Just before the experiments, cells were washed twice with D-PBS w/o Ca^2+/Mg^2+ (Euroclone cat. ECB4004L) and detached from the flask with trypsin-EDTA (Sigma cat. T4174; diluted 1/10). Cells were then re-suspended in the suspension solution: 25 mL EX-CELL ACF CHO medium(Sigma cat. C5467); 0.625 mL HEPES (Sigma cat. H0887); 0.25 mL of 100× Penicillin/Streptomycin (Euroclone cat. ECB3001D), 0.1 mL of Soybean Trypsin Inhibitor 10 mg/mL (Sigma cat. T6522) and placed on the QPatch 16X.
Dilution from stock were prepared just before the experiments in the extracellular solution (0.25% final DMSO concentration). DMSO solution was obtained from AppliChem (cat. A3672)
Patch Clamp Solutions: • Intracellular solution (mM): 120 CsMeSO3, 4 NaCl, 2 MgCl2, 10 EGTA, 20 HEPES, 2 Mg-ATP (pH 7.2 with CsOH). • Extracellular solution (mM): 140 NaGluconate, 5 KCl, 1 MgCl2, 2 CaCl2), 10 Glucose, 10 MES (pH 4.6 with HCl).
Patch Clamp Analysis—QPatch 16X
For the voltage clamp experiments on TRPML1, data were sampled at 5 KHz. After establishment of the seal and the passage in the whole cell configuration, the cells were held at −20 mV and the TRPML1 current was evoked using the voltage protocol illustrated in FIG. 2, applied every 5 sec. (50 ms at −20 mV; 20 ms at −120 mV, 1000 ms ramp from −120 to […]; 20 ms at +40 mV, and back to −20 mV); in the absence (vehicle period, i.e. 0.25% DMSO) and in the presence of increasing concentrations (3) of the compound under investigation.
Agonists: For data collection, the Sophion proprietary software was used and the analysis was performed off-line using Excel and GraphPad Prism (V 8.00). Results are reported in Table 6, expressed as TRPML1 current fold increase evoked by the compound under investigation (i.e. current in the presence of the compound/current in vehicle).

T1 sequence (Q9GZU1 whole entry): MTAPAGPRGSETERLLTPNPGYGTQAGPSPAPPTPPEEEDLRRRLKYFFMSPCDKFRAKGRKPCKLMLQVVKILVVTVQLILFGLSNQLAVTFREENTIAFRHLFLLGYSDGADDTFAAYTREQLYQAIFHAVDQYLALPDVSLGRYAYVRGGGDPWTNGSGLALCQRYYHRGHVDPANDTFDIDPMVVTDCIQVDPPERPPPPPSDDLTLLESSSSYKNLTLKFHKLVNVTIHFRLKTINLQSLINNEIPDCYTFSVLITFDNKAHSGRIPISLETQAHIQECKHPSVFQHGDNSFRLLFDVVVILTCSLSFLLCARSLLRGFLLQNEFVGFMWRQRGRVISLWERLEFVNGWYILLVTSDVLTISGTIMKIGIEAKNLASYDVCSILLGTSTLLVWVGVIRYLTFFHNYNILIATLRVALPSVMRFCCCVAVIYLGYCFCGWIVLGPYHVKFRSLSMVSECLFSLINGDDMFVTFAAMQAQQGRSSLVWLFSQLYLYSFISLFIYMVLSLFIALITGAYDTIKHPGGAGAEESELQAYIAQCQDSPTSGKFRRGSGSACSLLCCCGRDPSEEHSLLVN

Qpatch Assay TRPML1 agonism Current fold increase Mean ± SEM (n) (TRPML1; 0.3 μM compound)	Qpatch Assay TRPML1 agonism Current fold increase Mean ± SEM (n) (TRPML1; 3.0 μM compound)	Qpatch Assay TRPML1 agonism Current fold increase Mean ± SEM (n) (TRPML1; 30 μM compound)	Structure (SMILES)	EC50 [1] [nM]
310 ± 147 (4)	435 ± 172 (4)	603 ± 155 (3)	CN(C)S(=O)(=O)c1ccc(S(=O)(=O)Nc2ccccc2N2CCC(Oc3ccccn3)CC2)cc1 [Example 75, N1,N1-dimethyl-N4-{2-[4-(pyridin-2-yloxy)piperidin-1-yl]phenyl}benzene-1,4-disulfonamide]	170
35.6 ± 26.7 (3)	38.5 ± 24.8 (2)	52.7 ± 36.3 (2)	CN(C)S(=O)(=O)c1ccc(S(=O)(=O)Nc2ccccc2N2CCC(C(=O)OC(C)(C)C)CC2)cc1 [Example 76, f-butyl 1-{2-[4-(dimethylsulfamoyl)benzenesulfonamido]phenyl}piperidine-4-carboxylate]	59
74.4 ± 13.8 (3)	167 ± 10.7 (3)	168 ± 9.8 (3)	CN(C)S(=O)(=O)c1ccc(S(=O)(=O)Nc2ccccc2N2CCC(Oc3cnccn3)CC2)cc1 [Example 77, N1,N1-dimethyl-N4-{2-[4-(pyrazin-2-yloxy)piperidin-1-yl]phenyl} benzene-1,4-disulfonamide]	250

More lines, now with the values behind:

Structure (SMILES)	Qpatch Assay TRPML1 agonism Current fold increase Mean ± SEM (n) (TRPML1; 0.3 μM compound)	Qpatch Assay TRPML1 agonism Current fold increase Mean ± SEM (n) (TRPML1; 3.0 μM compound)	Qpatch Assay TRPML1 agonism Current fold increase Mean ± SEM (n) (TRPML1; 30 μM compound)	EC50 [1] [nM]
CN(C)S(=O)(=O)c1ccc(S(=O)(=O)NC2CCCCC2N2CCC(Oc3ccccc3)CC2)cc1 (racemic) [Example 57, N1,N1-dimethyl-N4-[2-(4-phenoxypiperidin-1-yl)cyclohexyl]benzene-1,4-disulfonamide]	0.39 ± 0.14 (2)	0.86 ± 0.68 (2)	4.3 ± 2.2 (2)	1800
CN(C)S(=O)(=O)c1ccc(S(=O)(=O)Nc2ccccc2N2CCCCC2)cc1 [Example 6, N1,N1-dimethyl-N4-[2-(piperidin-1-yl)phenyl]benzene-1,4-disulfonamide]	1.0 ± 0.77 (3)	32.7 ± 8.9 (3)	–	4400
CN(C)S(=O)(=O)c1ccc(S(=O)(=O)Nc2ccccc2N2CCN(C(=O)OC(C)(C)C)CC2)cc1 [Example 13, tert-butyl 4-{2-[4-(dimethylsulfamoyl)benzenesulfonamido]phenyl}piperazine-1-carboxylate]	13.5 ± 4.8 (4)	208 ± 15.7 (4)	244 ± 27.6 (4)	520
